Reference: patent publication US20250352458A1, “IMPROVEMENTS IN OR RELATING TO EXTRACTS” (Givaudan SA, priority 2020, published 2025)
Values joined by “and” are separate entries in the source; they are usually repeats but may differ in a detail not shown here. Equal values may be shown once.

Tests used:
[1] = tested on: hiPSC derived sebocytes; assay: In vitro lipogenesis inhibition in sebocytes derived from iPS with three ethnicities; format: cell-based, human; conditions: 10 μM (RA10), each ethnicity, arachidonic acid induced
[2] = tested on: C. granulosum (ATCC 25564); assay: MIC evaluation, optical density and percentage of inhibition; format: cell-based, Cutibacterium granulosum
From the text: (§1) The minimum inhibitory concentration of the following active ingredients has been assessed: • Mangifera indica extract (in propanediol/water 75/25); • Vehicule (propanediol/water 75/25, expressed as Activolo3-75%); • “Pool Mangiferin” which is the pure molecule mangiferin at the same concentration in the Mangifera indica extract in propanediol/water 75/25. • “Pool Mangifera” with is the mix of the 4 molecules (mangiferin, maclurin-C-glucoside, irifluophenone-C-glucoside, gallotanin) at the same concentration in the Mangifera indica extract in propane-diol/water 75/25. […] After two days, the bacterial concentration was adjusted in reinforced clostridial broth to obtain a solution at 1.106 CFU/ml (5.104 CFU/well). […] Concentrations are expressed in % (m/v). […] The diluted bacterial suspension was added to columns 2 to 12. RCB medium was added to column 1 as negative control. Optical density was determined, which correlates to the bacterial growth.

[3] = tested on: S. aureus (ATCC 33592); assay: as above; format: cell-based, Staphylococcus aureus
From the text: The minimum inhibitory concentration of the following active ingredients has been assessed: • Mangifera indica extract (in propanediol/water 75/25); • Vehicule (propanediol/water 75/25, expressed as Activolo3-75%); • “Pool Mangiferin” which is the pure molecule mangiferin at the same concentration in the Mangifera indica extract in propanediol/water 75/25. • “Pool Mangifera” with is the mix of the 4 molecules (mangiferin, maclurin-C-glucoside, irifluophenone-C-glucoside, gallotanin) at the same concentration in the Mangifera indica extract in propane-diol/water 75/25. S. aureus: The day before the experiment S. aureus (ATCC 33592) was plated and grown overnight at 37° C. Colonies were resuspended in 5 mL of TSB (Tryptic Soy Broth) to obtain a 0.5 McFarland D O (≈1.10^8 CFU/ml) (launch of culture at D-1). […] Concentrations are expressed in % (m/v). […] The diluted bacterial suspension was added to columns 2 to 12. RCB medium was added to column 1 as negative control. Optical density was determined, which correlates to the bacterial growth.

[4] = tested on: H. influenzae (ATCC 49766); assay: as above; format: cell-based, Haemophilus influenza
From the text: The minimum inhibitory concentration of the following active ingredients has been assessed: • Mangifera indica extract (in propanediol/water 75/25); • Vehicule (propanediol/water 75/25, expressed as Activolo3-75%); • “Pool Mangiferin” which is the pure molecule mangiferin at the same concentration in the Mangifera indica extract in propanediol/water 75/25. • “Pool Mangifera” with is the mix of the 4 molecules (mangiferin, maclurin-C-glucoside, irifluophenone-C-glucoside, gallotanin) at the same concentration in the Mangifera indica extract in propane-diol/water 75/25.
H. influenzae (ATCC 49766) was cultured in Mueller Hinton broth as recommended by ATCC with 5% CO2. The Bacterial concentration was adjusted in Mueller Hinton broth to obtain a solution at 1.106 CFU/ml (5.104 CFU/well) (launch of culture at D-2). […] Two day later, the inhibition of H. influenzae was evaluated using Colony counter IUL instruments, flash and go model (reading at D2).
Concentrations are expressed in % (m/v).
The diluted bacterial suspension was added to columns 2 to 12. RCB medium was added to column 1 as negative control.
Optical density was determined, which correlates to the bacterial growth. Thereafter, an inhibition value (%) was determined for each condition using the following formula: […]
The percentage of inhibition must be higher or equal than 90% to reach the MIC.

[5] = tested on: Propionibacterium acnes (C. acnes) phylotype IA1 ATCC 6919; assay: as above; format: cell-based
From the text: as §1

[6] = tested on: human sebaceous glands of skin explants; assay: Ex vivo sebum quantification, lipids of sebaceous glands by GC/MS; format: cell-based
Protocol: Skin explants from lifting of 3 donors (average 56.7 years old) were treated in systemic every day during 5 days in presence of dihydrotestosterone (DHT) at 30UM to induce an increase of lipogenesis mimicking a high production of sebum condition (stimulated condition) or left untreated (control condition). In parallel, skin explants were treated in presence of 0.5% of dibenzoyle peroxide (POB, positive reference) or with the Mangifera indica extract at 1% and 2%.
The tissues are extracted with an aqueous cocktail overnight at 4° C. They are then treated to take off the epidermis. A specific technique is used to recover the glands attached to these hair shafts.
After rinsing in an isotonic medium, the epidermis and its appendages are transferred to a watch glass. The sebaceous glands attached to the hair shaft of hair follicles are cut at the level of the pilosebaceous canal and deposited against the walls of the recovery vials. The sebaceous glands are recovered after dilaceration of the epidermal fragments. The glands are collected in a batch of 10 units. A washing of the glands is then performed to eliminate any contaminations of non-sebaceous origin. The sebum is then extracted with an organic cocktail overnight at room temperature. From this lipid extract, purification was carried out in order to isolate the different classes of lipids.
The identification and quantification of the different classes of lipids was realized by GC/MS.
The results are expressed in percent of the stimulated control (Untreated+DHT 30 μM). Bonferroni test multi comparison was used to do statistical analysis with #p<0.1, *p<0.05, **p<0.01, ***p<0.001.

[7] = tested on: sebaceous glands of skin explants NativeSkin; assay: Ex vivo sebaceous gland 3D volume in skin explants; format: cell-based, human; conditions: linoleic acid at 10% in Carbopol, 7 days, vs control
Protocol: The test was carried out on 4 skin explants NativeSkin® (average 40.75 years old) from pelvic area, a full-thickness skin biopsy embedded in a solid and nourishing matrix while its epidermal surface is left in contact with air. The skin biopsy is firmly embedded in the matrix that prevents any lateral diffusion of topically applied formulations. The skin explants were treated topically once a day for 7 days in presence of linoleic acid at 10% in Carbopol Ultrez 10 in order to stimulate the lipogenesis and mimic the condition of sebum excess (stimulated condition) or treated with Carbopol only (control condition). This induction mimics a high production of sebum. In parallel, skin explants were treated in presence of Mangifera indica extract at 1% and 2% formulated in Carbopol. After treatment, skin explants were fixed in formalin. After fixation, skin explants were cleared with methanol and a mix of Benzyl Benzoate and Benzyl Alcohol. All samples were observed by fluorescence light sheet microscopy (SPIM, homemade fabrication). Stack of images were taken per sample. 3D pictures of the glands were reconstructed and the size of each sebaceous gland was quantified using Amira® software. Results were represented with the mean volume of sebaceous gland +/−standard error to the mean. […] The results are expressed in percent of the stimulated control (10% linoleic acid). […]

[8] = tested on: human sebocyte cell line SEBO662AR; assay: In vitro lipogenesis inhibition in human sebocytes cell line (Bodipy lipid labeling); format: cell-based
Protocol: The sebocytes were seeded in 96-well plates (50 000 cells/well) and cultured for 24 hours in culture medium. The medium was then removed and replaced by assay medium containing the tested products including Mangifera indica extract at 0.3%, Mangiferin alone or pooled active molecules (four main phytomarkers) at their equivalent dosage in the extract at 0.3%. In the control assay medium, no product was contained. The cells were preincubated for 4 hours at those conditions. Then, the lipogenic mix (containing vitamin C, vitamin D3, insulin and calcium, and no androgens) was added in order to mimic the condition of excess of sebum, and the cells were incubated for 7 days. At mid-term, i.e. after 3 days of incubation, half of the medium was removed and the treatments were renewed (including lipogenic mix stimulation). […]
At the end of the incubation, the cells were rinsed, fixed and permeabilized. […] The labeling was quantified by the measurement of the fluorescence intensity normalized to the total number of cells (Integration of numerical data with the Developer Toolbox 1.5, GE Healthcare software). Results were expressed as Fluorescence intensity normalized to the number of cells, % stimulated control and % inhibition. The fluorescence intensity was analyzed exclusively in the lipid droplets (image analysis program based on object segmentation). […]

[9] = Ciprofloxacin 16 10^−4 % (m/v), plate col. 8-12
[10] = DHT 30 μM stimulation vs untreated
[11] = POB at 0.5%, DHT stimulated, 5 days

With CC1=C(/C=C/C(C)=C/C=C/C(C)=C\C(=O)O)C(C)(C)CCC1 [13-cis-retinoic-acid] the lipids production [1] was “significant reduction”.

With O=C(O)c1cn(C2CC2)c2cc(N3CCNCC3)c(F)cc2c1=O [Ciprofloxacin, reference compound] the “Percentage of inhibition, C. granulosum” value [2, 9] was 97.8% and 99.0% and 98.5%, the “inhibition of C. granulosum” value ([2]; Ciprofloxacin, text of Table 4b) was 99% and the “Percentage of inhibition, S. aureus” value [3, 9] was 99.4%. The “inhibition of S. aureus” value ([3]; Ciprofloxacin, text of Table 5b) was 99%, the “Percentage of inhibition, H. influenza” value [4, 9] was 99.7% and 99.0% and the “inhibition of H. influenza” value ([4]; Ciprofloxacin, text of Table 6b) was 99%. For the same compound, the “Percentage of inhibition, C. acnes” value [5, 9] was 99.3% and 98.8%, the “inhibition of P. acnes (FIG. 9)” value ([5]; Ciprofloxacin from 1×10^−4%) was 99% and the “inhibition of P. acnes” value ([5]; Ciprofloxacin, text of Table 3b) was 99%.

For C[C@]12CCC(=O)C[C@@H]1CC[C@@H]1[C@@H]2CC[C@]2(C)[C@@H](O)CC[C@@H]12 [DHT, dihydrotestosterone], the “cholesterol content of sebum” value [6, 10] was “no effect”, the “free fatty acids content of sebum” value [6, 10] was “significant increase” and the “squalene content of sebum” value [6, 10] was “significant increase”. The “triglycerides content of sebum” value [6, 10] was “significant increase”.

In the case of CCCCC/C=C\C/C=C\CCCCCCCC(=O)O [Linoleic acid, linoleic acid], the “change of 3D volume of sebaceous glands” value [7] is reported as “+37%”.

O=c1c2cc(O)c(O)cc2oc2cc(O)c([C@@H]3O[C@H](CO)[C@@H](O)[C@H](O)[C@H]3O)c(O)c12 [Mangiferin] was tested, and the “reduction of lipogenesis compared with lipogenic mix condition” value ([8]; Mangiferin at the same amount as available in the extracts) was −22%.

In the case of CCCCCCCCCCCCCCOc1ccc(C(=O)OCC(=O)N(C)CC(=O)OCC)o1 [Olumacostat glasaretil, reference compound], the “reduction of lipid production compared with lipogenic mix condition” value ([8]; Olumacostat glasaretyl at 1 μm, 7 days) is reported as −37%.

With O=C(OOC(=O)c1ccccc1)c1ccccc1 [POB, dibenzoyle peroxide] the “free fatty acids content of sebum” value [6, 11] was “significant reduction”, the “squalene content of sebum” value [6, 11] was “significant reduction” and the “triglycerides content of sebum” value [6, 11] was “significant reduction”.
